Eleven compounds from ChEMBL document CHEMBL1201862, “PubChem BioAssay data set” (2004) can be followed below.

Some test systems named below: IGROV-1; A549; SR; K562; U-251; UACC-257; SF-295; HCT-15; CCRF-CEM; SF-268; OVCAR-3; HL-60; SK-MEL-2; SK-MEL-28; LOX IMVI; SNB-19; MOLT-4; UO-31; OVCAR-8.
Assay in all cases: NCI anticancer screen, dose series, 48 h

SMILES strings stand for the structures.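 In this assay, cells in 96-well plates receive the compound at five concentrations for 48 hours. Endpoints are linearly interpolated between the surrounding concentrations. Abbreviation: GI50, concentration required for 50% inhibition of growth.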 Active and inactive are the calls of the source. No stated cut-off is given here; in the data, active = GI50 up to about 1.1 µM and inactive = higher. Some results are limits rather than exact numbers.

`COc1cc2c(cc1-c1coc3cc(OCC=C(C)C)ccc3c1=O)OCO2`: the GI50 is 30.8 µM (inactive) in the assay with IGROV-1; 28.6 µM (inactive) in the assay on A549; 6.32 µM (inactive) in the assay on SR; 6.85 µM (inactive) with K562; 35.2 µM (inactive) in the assay on U-251; 33.3 µM (inactive) with UACC-257. Besides, the GI50 is 33.6 µM (inactive) in the assay with SF-295; 9.77 µM in the assay with HCT-15; > 10 µM (inactive) with CCRF-CEM; 43.4 µM (inactive) in the assay on SF-268; 61.2 µM (inactive) in the assay with OVCAR-3; 10 µM (inactive) with HL-60. The GI50 in the assay on SK-MEL-2 is 48.1 µM (inactive); with SK-MEL-28, 45.8 µM (inactive); in the assay with LOX IMVI, 19.3 µM (inactive); in the assay on SNB-19 it was 27.4 µM (inactive); in the assay on MOLT-4 it was 10.9 µM (inactive); with UO-31, 31 µM (inactive).

As for `CC/C(C)=C1\OC(=O)C(C)C(O)C(Cc2cccnc2)NC(=O)C(NC(=O)c2ncccc2O)C(C)OC1=O` (stereo not given), the GI50 in the assay on IGROV-1 is 27.1 µM (inactive); in the assay with A549, 74.3 µM (inactive); in the assay with SR it was > 100 µM (inactive); in the assay on K562, > 100 µM (inactive); in the assay on OVCAR-8 it was 63.8 µM (inactive); with U-251, > 100 µM (inactive). Besides, the GI50 was > 100 µM (inactive) with UACC-257; 44.4 µM (inactive) with SF-295; 49.5 µM in the assay on HCT-15; 58.3 µM (inactive) in the assay on SF-268; > 100 µM (inactive) with OVCAR-3; 62.8 µM (inactive) with HL-60. The GI50 is > 100 µM (inactive) in the assay with SK-MEL-2; > 100 µM (inactive) in the assay with SK-MEL-28; > 100 µM (inactive) with LOX IMVI; > 100 µM (inactive) with SNB-19; 53.6 µM (inactive) in the assay with MOLT-4.

`CCOC(=O)C1C(NC(N)=O)N(Cc2ccccc2)C(=O)N1Cc1ccccc1` (stereo not given): the GI50 with IGROV-1 is > 100 µM (inactive); in the assay with A549, > 100 µM (inactive); with SR, > 100 µM (inactive); in the assay with K562 it was > 100 µM (inactive); with OVCAR-8 it was > 100 µM (inactive); with U-251 it was 17.3 µM (inactive). In addition, the GI50 in the assay with UACC-257 was > 100 µM (inactive); with SF-295, > 100 µM (inactive); with HCT-15, greater than 100 µM; with CCRF-CEM, > 100 µM (inactive); with SF-268, > 100 µM (inactive); in the assay on OVCAR-3 it was > 100 µM (inactive). In addition, the GI50 in the assay on HL-60, in the assay with SK-MEL-2, in the assay on SK-MEL-28, with LOX IMVI, with SNB-19 and in the assay with MOLT-4 was > 100 µM (inactive) in each case. Moreover, the GI50 in the assay on UO-31 was > 100 µM (inactive).

As for `O=C(O)[C@@H]1CCCC[C@@H]1C(=O)N(C1CCCCC1)C1CCCCC1`, the GI50 with IGROV-1, in the assay on A549, with SR, in the assay on K562, with OVCAR-8 and in the assay with U-251 was > 100 µM (inactive) throughout. Besides, the GI50 with UACC-257 is > 100 µM (inactive); in the assay with SF-295, > 100 µM (inactive); in the assay with HCT-15 it was greater than 100 µM; with CCRF-CEM, > 100 µM (inactive); with SF-268, > 100 µM (inactive); in the assay with OVCAR-3, > 100 µM (inactive). In addition, the GI50 in the assay on HL-60, in the assay with SK-MEL-2, in the assay on SK-MEL-28, in the assay with LOX IMVI, in the assay on MOLT-4 and in the assay with UO-31 was > 100 µM (inactive) throughout.

On to `COc1cc(Br)cc2c1O[C@H]1C(=O)CC3CC21CCN3C` (stereo not given in full), for which the GI50 in the assay on IGROV-1 was 30.8 µM (inactive); in the assay with A549 it was 94.4 µM (inactive); with SR it was 33.9 µM (inactive); in the assay on K562, 19.8 µM (inactive); in the assay with OVCAR-8, 19.7 µM (inactive); in the assay on UACC-257, 35.8 µM (inactive). Also, the GI50 is > 100 µM (inactive) in the assay on SF-295; 54.1 µM in the assay on HCT-15; 4.09 µM (inactive) in the assay on CCRF-CEM; 80 µM (inactive) in the assay on SF-268; > 100 µM (inactive) in the assay on OVCAR-3; 16.4 µM (inactive) in the assay with HL-60. Moreover, the GI50 in the assay with SK-MEL-2 was > 100 µM (inactive); in the assay with SK-MEL-28, > 100 µM (inactive); in the assay on LOX IMVI it was 32.9 µM (inactive); in the assay with SNB-19 it was > 100 µM (inactive); with MOLT-4, 25 µM (inactive); with UO-31, 34.9 µM (inactive).

As for `Nc1nc(Cl)c(N)c(NCC2(CO)CC(CCCc3ccccc3)C2)n1` (stereo not given), the GI50 was 21.6 µM (inactive) in the assay on IGROV-1; 15.5 µM (inactive) in the assay with A549; 23.6 µM (inactive) with SR; 10.8 µM (inactive) with K562; 34.3 µM (inactive) in the assay on U-251; 7.67 µM (inactive) in the assay on UACC-257. For the same compound, the GI50 with SF-295 is 14 µM (inactive); with HCT-15, 51.5 µM; in the assay on CCRF-CEM it was 0.0451 µM (active); in the assay on SF-268 it was 23 µM (inactive); with OVCAR-3, 19.1 µM (inactive); in the assay with HL-60, 0.117 µM (active). The GI50 is 0.137 µM (active) with SK-MEL-2; 47.1 µM (inactive) with SK-MEL-28; 16.7 µM (inactive) with LOX IMVI; > 55.5 µM (inactive) in the assay on SNB-19; 5.07 µM (inactive) in the assay with MOLT-4; 12.9 µM (inactive) in the assay on UO-31.

For `O=C(O)c1ccc(Nc2nc3ccccc3nc2C(=O)O)cc1`, the GI50 with IGROV-1, in the assay on A549, in the assay with SR, with K562, in the assay with OVCAR-8 and in the assay with U-251 was > 100 µM (inactive) each time. Further, the GI50 in the assay on UACC-257 is > 100 µM (inactive); in the assay on SF-295, > 100 µM (inactive); in the assay with CCRF-CEM it was > 100 µM (inactive); with SF-268, > 100 µM (inactive); in the assay on OVCAR-3 it was > 100 µM (inactive); with HL-60, > 10 µM (inactive). In addition, the GI50 in the assay with SK-MEL-2, in the assay on SK-MEL-28, in the assay on SNB-19, in the assay with MOLT-4 and in the assay on UO-31 was > 100 µM (inactive) in each case.

For the compound `Cn1c(=O)c2c(ncn2CCNC(CO)C(O)c2ccc([N+](=O)[O-])cc2)n(C)c1=O` (stereo not given), the GI50 in the assay on IGROV-1 was > 10 µM (inactive); in the assay on A549 it was > 100 µM (inactive); in the assay on SR, > 100 µM (inactive); with K562 it was > 100 µM (inactive); with OVCAR-8, > 100 µM (inactive); in the assay with U-251 it was > 100 µM (inactive). The GI50 in the assay on UACC-257 was > 100 µM (inactive); in the assay with SF-295 it was > 100 µM (inactive); in the assay on HCT-15, greater than 100 µM; in the assay with CCRF-CEM, > 100 µM (inactive); in the assay with SF-268, > 100 µM (inactive); in the assay on OVCAR-3, > 100 µM (inactive). Further, the GI50 with HL-60, in the assay with SK-MEL-2, in the assay on SK-MEL-28, with LOX IMVI, in the assay on SNB-19 and in the assay on MOLT-4 was > 100 µM (inactive) in each case. The GI50 in the assay with UO-31 is > 100 µM (inactive).

On to `CC1(C)CC(C)(C)CC(O)(C2(O)CC(C)(C)CC(C)(C)C2)C1`, for which the GI50 with IGROV-1, in the assay on A549, with SR, in the assay with K562, with OVCAR-8 and in the assay with U-251 was > 100 µM (inactive) each time. In addition, the GI50 with UACC-257 was > 100 µM (inactive); in the assay with SF-295 it was > 100 µM (inactive); in the assay with HCT-15 it was greater than 100 µM; in the assay with CCRF-CEM, > 100 µM (inactive); in the assay on SF-268 it was > 100 µM (inactive); in the assay on OVCAR-3, > 100 µM (inactive). Further, the GI50 in the assay with HL-60, in the assay with SK-MEL-28, in the assay with LOX IMVI, in the assay on SNB-19, in the assay on MOLT-4 and in the assay on UO-31 was > 100 µM (inactive) throughout.

Turning to `N#C[BH2-][n+]1ccc(C(=O)NNC(c2ccccc2)C(F)(F)F)cc1` (stereo not given), the GI50 in the assay on IGROV-1, in the assay on A549, in the assay on SR, with K562, with OVCAR-8 and with U-251 was > 100 µM (inactive) in each case. Besides, the GI50 with UACC-257 was > 100 µM (inactive); with SF-295 it was > 100 µM (inactive); with HCT-15, greater than 100 µM; in the assay with CCRF-CEM, > 100 µM (inactive); in the assay on SF-268, > 100 µM (inactive); with HL-60, > 100 µM (inactive). The GI50 in the assay with SK-MEL-2, with SK-MEL-28, in the assay on LOX IMVI, in the assay on SNB-19 and with MOLT-4 was > 100 µM (inactive) each time.

On to `COc1cc(C)c2c(c1C)OC(=O)c1c(C)c(Cl)c(O)c(C=O)c1O2`, for which the GI50 in the assay with IGROV-1 was 24.2 µM (inactive); with A549 it was 12.8 µM (inactive); in the assay with SR, 14.3 µM (inactive); in the assay on K562 it was 18.5 µM (inactive); in the assay on OVCAR-8, 10.2 µM (inactive); in the assay with U-251 it was 6.41 µM (inactive). Further, the GI50 in the assay on UACC-257 is 20 µM (inactive); in the assay on SF-295 it was > 10 µM (inactive); with CCRF-CEM it was 9.18 µM (inactive); in the assay on SF-268, 9.66 µM (inactive); with OVCAR-3 it was 1.63 µM (inactive); with HL-60, 9.02 µM (inactive). The GI50 in the assay with LOX IMVI was 16 µM (inactive); in the assay on SNB-19, 19.1 µM (inactive); in the assay on MOLT-4 it was 9.79 µM (inactive); in the assay on UO-31, 11.2 µM (inactive).
